Experiments:
hPPARγ = target: T1, hPPARγ (Homo sapiens, UniProt P37231); experiment: Gal4-hPPARγ chimera transactivation in COS-7 cells (luciferase); type: cell-based; conditions: induction factor standardised to an internal reference, read-out: % hGal4-PPAR transactivation (10 μM) gamma
T1 construct: fragments of DNA amplified by PCR corresponding to the DEF domains of the human PPARα, PPARγ PPARδ nuclear receptors; expressed in transfected cells; host or cells: COS-7 (monkey kidney fibroblast line)
T1 sequence (P37231 238-503 limits assumed): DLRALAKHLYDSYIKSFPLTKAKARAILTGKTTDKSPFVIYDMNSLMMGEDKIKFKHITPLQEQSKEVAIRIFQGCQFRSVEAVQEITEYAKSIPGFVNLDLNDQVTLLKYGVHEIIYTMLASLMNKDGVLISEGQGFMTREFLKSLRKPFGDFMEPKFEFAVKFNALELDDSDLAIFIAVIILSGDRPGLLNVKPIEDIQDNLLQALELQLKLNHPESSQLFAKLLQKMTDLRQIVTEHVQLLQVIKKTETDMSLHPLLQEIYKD
Method in brief: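 COS-7 cells transiently transfected with Gal4-DBD/human PPAR DEF-domain chimeras plus Gal4(RE)_TkpGL3 luciferase reporter (1/10 ratio), then exposed 24 h serum-free to compound at 10 μM. Luciferase induction factor over control, normalised to an internal reference per isoform, expressed as percent activation.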

Male Sprague-Dawley rats = experiment: Glycemia and insulinemia after oral administration in fasted rats; type: in vivo, rat; conditions: oral, fasted rat
From the text: In normal animals (as in man), the consequence of the administration of insulinotropic compounds is a significant increase in the plasmatic level of insulin. This induced hyperinsulinemia induces a reduction in glycemia. This example studies the evolution of glycemia and of insulinemia following oral administration of the inventive compounds in rats: the insulinotropic action of the compounds in vivo should induce a significant decrease of glycemia.
Male Sprague-Dawley rats (300-320 g) (CERJ—Le Genest St Isle-France) were used in order to carry out this experiment. The rats were fed with a standard diet of granular material; they had free access to food and drink and were kept in individual, ventilated cages in a 12 hr/12 hr light/dark rhythm. The animals were deprived of food for 16 hours prior to the experiment.
The compound was suspended in an aqueous carboxymethylcellulose solution (Sigma C4888) at 1% containing 0.1% Tween80 (Sigma P8074). The animals of the control group received the vehicle alone. The treated animals received a single administration of the compound (the suspension was administered by gavage at the rate of 10 ml/kg). Each group was made up of 11 animals. A 1st blood sample was taken by puncturing the retro-orbital sinus of the animals under volatile isoflurane anaesthesia: this sample makes up the initial time of the experiment. The substance or the vehicle were immediately administered to the animals by gavage, and blood samples were taken over time.
The animals' glycemia was measured in real time using a glucometer (Glucotrend2-Roche Diagnostic-France). The insulinemias were measured using an ELISA kit (Insulin Elisa Kit—Crystal Chem. USA). The method used was of the ELISA type: plasmatic insulin was specifically bound to anti-insulin monoclonal antibodies immobilised on the microtitration plate; simultaneously, an anti-insulin polyclonal guinea pig antibody was added to the reaction. The revelation of the reaction was guaranteed by an antibody coupled to peroxidase. These antibodies bind specifically to the guinea pig's immunoglobulins. The production of oxidised chromogen causes an increase in absorbance in proportion to the quantity of insulin present in the sample.

CCCCC(NC(=O)Cc1ccc(OC(C)(C)C(=O)NS(C)(=O)=O)cc1)c1ccccc1N1CCCCC1 (stereo not drawn) [Compound 52, N-[methylsulfonyl]-2-[4-[1-(1-(2-(1-piperidinyl)phenyl)pentyl)aminocarbonylmethyl]phenoxy]-2-methylpropanamide]
activation at 10 µM (hPPARγ): < 10%
decrease in glycemia between T=0 and T=120 min (Male Sprague-Dawley rats; 50 mpk): no measurable effect
decrease in glycemia between T=0 and T=120 min (Male Sprague-Dawley rats; 500 mpk): 19%

Reference: US20060079696A1, “Substituted compounds derived from N-(benzyl)phenylacetamide, preparation and uses” (GENFIT, priority 2004, published 2006)
